US20130078317A1, “ZINC-CONTAINING COMPOSITIONS FOR THE TREATMENT OF DISEASES, ILLNESSES AND SYNDROMES ASSOCIATED WITH EXPOSURE TO PORE FORMING TOXINS” (priority 2009, published 2013)
Values joined by “and” are separate entries in the source; they are usually repeats but may differ in a detail not shown here. Identical values can stand only once. “Also recorded” adds a separate entry of the source.

Tests used:
hemolytic toxins = conditions: 10 mM D-lactulose; cited from earlier work
[1] = test system: Carybdea alata venom in isolated red blood cells (2% RBC); type: cell-based, human
[2] = test system: Chironex fleckeri venom in isolated red blood cells (2% RBC); type: cell-based, human
[3] = test system: Chironex fleckeri venom in whole blood; type: cell-based, human
[4] = test system: Carybdea alata venom in isolated red blood cells (2% RBC); assay: Hemolysis induced by Carybdea alata venom in 2% RBC; type: cell-based, human
[5] = test system: Chironex fleckeri venom in whole blood; assay: Hemolysis induced by Chironex fleckeri venom in whole blood; type: cell-based, human; conditions: 5 mM zinc gluconate, compared to untreated cells, FIG. 6
[6] = test system: Chironex fleckeri venom in whole blood; assay: Cytokine production in whole blood exposed to Chironex fleckeri venom; type: cell-based, human; conditions: CF venom, 5 mM zinc gluconate, FIG. 7
[7] = test system: Chironex fleckeri venom in whole blood; assay: Catecholamine and histamine response in whole blood exposed to Chironex fleckeri venom; type: cell-based, human; conditions: CF venom, 5 mM zinc gluconate, FIG. 8
Chironex fleckeri venom = assay: Mouse envenomation model with echocardiography/electrocardiography, survival, plasma hemoglobin and potassium (Example 6); type: in vivo
cubozoan porin [8] = conditions: pig, in vivo
cubozoan porin [9] = assay: Human subjects envenomated by a cubozoan porin, intravenous zinc gluconate (Example 8); type: in vivo; conditions: IV infusion 2.5 to 4 mg per day
cubozoan porin [10] = assay: Human subjects envenomated by a cubozoan porin, subcutaneous bolus then continuous IV (Example 9); type: in vivo; conditions: subcutaneous bolus 5 mL of 100 mM, then IV 5 mM
cubozoan porin [11] = assay: Human subjects envenomated by a cubozoan porin, transdermal patch (Example 10); type: in vivo; conditions: iontophoresis, 5 mM at 40 mAmp/min
bacterial porin = assay: Human subjects exposed to a bacterial porin, intravenous (Example 11); type: in vivo; conditions: IV 2.5 to 4 mg per day
Method: In this Example, human subjects are treated with zinc gluconate intravenously after being exposed to a bacterial porin. […] Samples are removed to monitor levels of potassium, cytokines, histamine, and catecholamine, in the blood serum.

viral porin = assay: Human subjects exposed to a viral porin, intravenous (Example 12); type: in vivo; conditions: IV 2.5 to 4 mg per day
Method: In this Example, human subjects are treated with zinc gluconate intravenously after being exposed to a viral porin. […] Samples are removed to monitor levels of potassium, cytokines, histamine, and catecholamine, in the blood serum.

[12] = test system: mushroom pore-forming toxin; assay: Human subjects exposed to a mushroom pore-forming toxin, intravenous (Example 13); type: in vivo; conditions: IV 2.5 to 4 mg per day
Method: In this Example, human subjects are treated with zinc gluconate intravenously after being exposed to a mushroom pore-forming toxin. […] Samples are removed to monitor levels of potassium, cytokines, histamine, and catecholamine, in the blood serum.

[13] = mice, Zn Gluc then 2000 U venom IV, cardiac blood at death

In the case of `OC[C@H]1O[C@@H](O[C@@H]2[C@@H](CO)O[C@](O)(CO)[C@H]2O)[C@H](O)[C@@H](O)[C@H]1O` [D-lactulose], the Hemolysis (hemolytic toxins) is given as “dramatic absence of hemolysis”.
With zinc gluconate the “potassium efflux induced by Carybdea alata venom” value [1] was “fully inhibited”, the “potassium efflux induced by Chironex fleckeri venom” value [2] was “fully inhibited” and the “potassium efflux induced by Chironex fleckeri venom” value [3] was “inhibited”. For the same compound, the “hemolysis induced by Carybdea alata venom” value ([4]; 2% RBC, 5 mM zinc gluconate) was “substantially inhibited”, the “decrease of the total hemolytic capacity of the venom dose” value ([4]; venom dose 6.4 U/ml) was “more than 10 fold” and the “hemolysis induced by Chironex fleckeri venom” value [5] was “substantially less severe hemolysis”. For the same compound, the “production of EGF” value [6] was “reduced”, the “production of G-CSF” value [6] was “reduced” and the “production of GRO” value [6] was “reduced”. For the same compound, the “production of IFNα2” value [6] was “reduced”, the “production of PDGF-AA” value [6] was “reduced” and the “production of TNFα” value [6] was “reduced”. For the same compound, the catecholamine response [7] was “reduced”, the histamine response [7] was “reduced” and the EKG recovery (Chironex fleckeri venom; Mouse 2010-6-09-2, FIG. 10) was “recovered within thirty seconds”. For the same compound, the “time of cessation of ventricular contraction” value (Chironex fleckeri venom; Mouse 2010-6-09-2, FIG. 10) was 10.5 min, the “time of recovery of ventricular contraction” value (Chironex fleckeri venom; Mouse 2010-6-09-2, FIG. 10) was 11 min and the “rebounds of ventricular contraction subsequent to periods of pulseless electrical activity (PEA)” value (Chironex fleckeri venom; mice pre-injected with zinc gluconate, in three mice) was “frequently observed”. The Hemolysis (Chironex fleckeri venom; [13]) was 6% and 4% and 2% and 3%, the “Plasma Hgb” value (Chironex fleckeri venom; [13]) was 860 mg/100 mL and 673 mg/100 mL and 471 mg/100 mL and the survival rates (Chironex fleckeri venom; relative to the untreated mice, FIG. 11) was “higher survival rates”. For the same compound, the “duration of survival post-envenomation (survival times)” value (Chironex fleckeri venom; relative to the untreated mice, intravenous, FIG. 11, P<0.0001) was “longer durations of survival; also recorded: significantly prolonged”, the “normal EKG conductive sequences maintained” value (Chironex fleckeri venom; zinc treated animals exposed to cubozoan PFT) was “for longer periods” and the severity of symptoms (cubozoan porin [8]) was “reduce the severity of symptoms”. The survival (cubozoan porin [8]) was “siginificantly improve survival”, the “likelihood of a lethal outcome” value (cubozoan porin [9]) was “decrease the likelihood a lethal outcome” and the “severity of physiological symptoms associated with the venom poisoning” value (cubozoan porin [9]) was “reduce the severity of physiological symptoms”. For the same compound, the “likelihood of a lethal outcome” value (cubozoan porin [10]) was “decrease the likelihood a lethal outcome”, the “severity of physiological symptoms associated with the venom poisoning” value (cubozoan porin [10]) was “reduce the severity of physiological symptoms” and the “likelihood of a lethal outcome” value (cubozoan porin [11]) was “decrease the likelihood a lethal outcome”. The “severity of physiological symptoms associated with the venom poisoning” value (cubozoan porin [11]) was “reduce the severity of physiological symptoms”, the “health of the subject” value (bacterial porin) was “improve the health of the subject” and the “severity of physiological symptoms associated with porin exposure” value (bacterial porin) was “reduce the severity of physiological symptoms”. The “health of the subject” value (viral porin) was “improve the health of the subject”, the “severity of physiological symptoms associated with porin exposure” value (viral porin) was “reduce the severity of physiological symptoms” and the “health of the subject” value [12] was “improve the health of the subject”. The “severity of physiological symptoms associated with porin exposure” value [12] was “reduce the severity of physiological symptoms”.
